A short description of this data set: Pharmacokinetic analysis: apparent half-life of L-Dopa in rat plasma after dosing prodrug co-dosed with Benserazide. Particulars: male Wistar rats, L-Dopa generated from prodrug. In kind it is in vivo. The method, then:
The compound of the invention (I) and comparison compounds (II-VII) were tested in an assay which measures parameters relevant to the pharmacokinetic profile of the test compound. The assay measured the length of time L-dopa remained in the blood of test animals Naïve male Wistar rats (bodyweight=250-500 g) were used for the pharmacokinetic studies. Animals were fasted overnight. The compound of interest was dissolved in 0.9% saline and co-dosed with Benserazide (10 mg/kg) at a molecular weight equivalent dose to 12.5 mg/kg L-Dopa. Blood samples were taken via a butterfly needle located into the lateral tail vein and collected into sample tubes containing heparin as the anti-coagulant. Blood samples were centrifuged at 5000 rpm for 10 minutes; the supernatant plasma was removed and stored at −80° C. Stock solutions of 10 mM L-Dopa and Warfarin were prepared in 20% TFA, 10 mM sodium meta bisulphite and DMSO, respectively. […] Quantification of L-Dopa and Warfarin was achieved by monitoring the transitions of m/z=198.075/152.1 and […], respectively. The apparent half-life of the L-Dopa generated from the prodrugs was calculated from the terminal plasma samples using non compartment models of WinNonLin (Pharsight California USA) with no weighting.

The text below walks through data of patent publication US8377986B2, “Amino acid derivatives” (Proximagen Ltd., priority 2007, dated 2013).

Consider `COC(=O)[C@@H](N)Cc1ccc(OC(=O)CC(C)(C)C)c(OC(=O)CC(C)(C)C)c1.Cl` [I, (S)-2-[3,4-Bis-(3,3-dimethyl-butyryloxy)-phenyl]-1-methoxycarbonyl-ethyl-ammonium chloride], for which the “apparent half-life compared with structurally analogous comparison compounds” value is “significantly greater than the structurally analogous comparison compounds”.
